Measurements from patent publication US7208154B2, “Methods and compositions for the treatment of MHC-associated conditions” (Regents of the University of Michigan, priority 2002, dated 2007).
No end group written: not given here.

Key:
[1] = test system: human fibroblastoid line M1 cells; settings: for Inhibition of cAMP-mediated (2CA-induced) DNA repair induction: M1 cells preincubated overnight with 50 μg/ml soluble peptide
Text: To further determine the signaling pathways involved in DNA repair induction, the inventors used the Trevigen CometAssay™ kit (Cat. No. 4250-50-K). The CometAssay is a single-cell gel electrophoresis method that can measure a variety of types of DNA damage, and repair of damage, in individual cells. The assay is based on the alkaline lysis of labile DNA at sites of damage. The unwound, relaxed DNA is able to migrate out of the cell during electrophoresis and can be visualized by SYBR Green staining.
To quantify DNA damage, cells were collected and three parallel samples were processed (a negative control, a DNA damage control (H2O2) and a sample subjected to H2O2 following exposure to various modulators of the cAMP signaling pathway). Cells are then washed in PBS. The washed cells are combined with molten low-melting agarose (Trevigen Cat. No. 4250-50-02) and transferred to a CometSlide™ (Trevigen Cat. No. 4250-100-03). The slides are immersed in lysis buffer for 30 min, on ice, in the dark. The slides are then treated with alkali buffer for 20 to 60 min at room temperature in the dark. The slides are then electrophoresed in buffer for 10 min at 20 volts, then fixed in methanol and ethanol. The slides are then stained with SYBR green (Trevigen Cat. No. 4250-50-05) solution and fluorescently imaged with a Diagnostic Instruments digitized camera, mounted on a Nikon Eclipse E400 microscope. Scion Image software is used to quantitate the comet tail intensity. Each data point is derived from tail fluorescent intensity determination in 50–100 individual cells. Data is presented as % DNA repair (the percent decrement in tail fluorescence intensity in agonist or antagonist-treated cells, relative to the intensity recorded in cells treated with H2O2 only)±SEM. (R.U.s)
(§1) To directly examine that possibility, cells were incubated overnight with synthetic peptides corresponding to the region contained within amino acids 65–79 and their ability to mount DNA repair activity in response to cAMP-elevating agents was determined. M1 cells were preincubated overnight with 50 μg/ml of synthetic peptides corresponding to the region surrounding the third allelic hypervariable region (aa 65–79) of each of the following DRβ chains: *0401 (65–79*0401) [SEQ ID NO: 5], *0402 (65–79*0402) [SEQ ID NO: 7], *0403 (65–79*0403) [SEQ ID NO: 9] or *0404(65–79*0404) [SEQ ID NO: 10]. At the end of the preincubation, cells were collected, washed and 2CA-induced DNA repair was determined as above. Table 3 (above) lists the different third allelic hypervariable region peptides used in the entire study disclosed here.
A modified method as described previously by Auger et al. [Nature Med 2:306–310 1996] was used. Briefly, cyanogen bromide activated Speharose 4B (1.5 ml) was washed with 1 mM HCl and incubated with peptides in 0.1 M NaHCO3 and 0.5 M NaCl (pH 8) buffer overnight at 4° C. For each peptide, 5 mg was used per milliliter of Sepharose. Free Sepharose groups were blocked with 0.2 M glycine (pH 8) for 2 hours at room temperature. Columns were washed at 4° C. with the following buffers: 0.1 M NaHCO3, 0.5 M NaCl (pH 8) buffer, then 0.5 M CH3COONa (pH 4) buffer and finally PBS at pH 7.5. M1 cells were plated at a density of 0.5×10^6 cells per well (6 well plate) in 10% FBS DMEM medium until 70–80% confluence. Prior to incubation with peptides, cultures were changed to serum-free DMEM medium, then evenly overlaid with 50 μg bead conjugated peptides, and incubated for the indicated period. Soluble peptides were added overnight to M1 cells at a concentration of 50 μg/ml.

mouse cells = assay: cAMP-mediated DNA repair induction in mouse cells (data not shown); type: cell-based
Method: as §1

[2] = target: T1, purified recombinant calreticulin (Homo sapiens, UniProt P27797); assay: Surface plasmon resonance, peptides immobilized on CM5 chip, calreticulin in flow phase; type: binding; settings: peptide immobilized on Biacore sensor chip CM5
T1 sequence (P27797 18-417): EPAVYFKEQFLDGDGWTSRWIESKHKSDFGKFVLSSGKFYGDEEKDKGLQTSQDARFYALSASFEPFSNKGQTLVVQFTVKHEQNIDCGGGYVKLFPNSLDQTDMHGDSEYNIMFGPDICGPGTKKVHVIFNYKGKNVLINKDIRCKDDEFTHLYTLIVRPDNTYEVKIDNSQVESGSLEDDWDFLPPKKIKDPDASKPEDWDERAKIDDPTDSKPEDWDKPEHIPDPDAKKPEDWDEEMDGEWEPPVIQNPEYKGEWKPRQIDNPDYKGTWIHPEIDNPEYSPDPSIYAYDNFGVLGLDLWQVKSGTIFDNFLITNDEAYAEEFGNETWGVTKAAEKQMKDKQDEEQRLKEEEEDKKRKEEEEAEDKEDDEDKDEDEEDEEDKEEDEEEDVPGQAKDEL
Text: To determine whether 65–78*0404 [SEQ ID NO: 28]-conjugated peptides bind these proteins directly, purified recombinant products were used. […] Shared epitope-containing peptides, 65–79*0401-[SEQ ID NO: 5] and 65–79*0404-[SEQ ID NO: 10], as well as a control peptide 65–79*0402-[SEQ ID NO: 7] were immobilized on different channels in a Biacore® sensor chip CM5 and purified recombinant calreticulin was applied in the flow phase.

Protein kinase A (PKA) = assay: PKA activity in M1 cells after 2CA; type: cell-based, human; settings: M1 cells preincubated with peptide-conjugated beads, 10 μM 2CA
Method: Protein kinase A (PKA) was measured using the Life Technologies™ Protein Kinase A (cAMP-dependent Protein Kinase) Assay System (Cat. No. 13128-012). The basis of the assay system is the use of a heptapeptide substrate and a 17-amino acid inhibitor peptide (which is valuable for proving PKA-specific protein kinase activity). Four assay conditions per experimental condition are recommended by the manufacturer (+/− inhibitor and +/− cAMP) to determine total PKA-specific kinase activity and proportion of PKA activated in the cells or tissue of interest. Briefly, the four parallel assay conditions are set up for each of the four assay conditions for a given cell or tissue sample, according to the manufacturer's instructions. Substrate and [γ-^32P]ATP (3000–6000 Ci/mmol stock solution) are then added to each tube, and incubated according to the manufacturer's instructions. Following the incubation period, a sample from each tube is spotted onto a […] disc, which is the acid washed prior to scintillation counting (all according to the manufacturer's instructions). Activity can then be determined as described by the manufacturer of the kit.
B.) PKA activity was determined in M1 cells preincubated with peptide-conjugated beads [Bead*0401, SEQ ID NO: 6; Bead*0402, SEQ ID NO: 8], at different time points following treatment with 10 μM 2CA as above.

M1 cells = assay: Intracellular cAMP level (enzyme immunoassay) in M1 cells after 2CA; type: cell-based, human; settings: M1 cells preincubated 10 min with peptide-conjugated beads, 10 or 100 μM 2CA
Method: cAMP was determined by using an Amersham Pharmacia Biotech cAMP enzymeimmunoassay (EIA) system (code RPN 225). The reagents are prepared as described by the manufacturer (lysis reagents 1 and 2, the standard for the non-acetylation assay, the anti-cAMP antiserum, the cAMP peroxidase conjugate and wash buffer). […] Samples are added, followed by the antiserum solution. Following the recommended incubation, cAMP-peroxidase conjugate is added and incubated according to the recommended protocol. Each well is then aspirated and washed, and enzyme substrate is added and incubated. The results can then be read at 630 nm or at 450 nm (depending on the time of incubation and method of stopping the reaction), again according to the manufacturer's protocol.
A.) cAMP levels were assayed in M1 cells that were preincubated for 10 minutes with peptide-conjugated beads [Bead*0401, SEQ ID NO:6; Bead*0402, SEQ ID NO: 8], and intracellular cAMP level changes in response to stimulation with either 10 μM (FIG. 10A, top) or 100 μM (FIG. 10A, bottom) of 2CA were determined at different time points. cAMP levels were measured using a commercial enzyme immunoassay kit from Pharmacia. Results are expressed as fold increase of cAMP above baseline levels.

[3] = test system: hybrid neuroblastoma-glioma NG108–15 cell line; assay: Neuroprotection in acutely stressed NG108–15 cells; type: cell-based; settings: near-confluent NG108–15, 50 μg/ml peptide, 24 hr
Method: In order to assess whether shared epitope-containing peptides exert a neuroprotective effect, preliminary experiments were carried out with the hybrid neuroblastoma-glioma NG108–15 cell line. Cells (10^5/ml) were first cultured overnight at near-confluence in 24-well plates in DMEM medium supplemented with 1% fetal calf serum (FCS). Under these conditions, NG108–15 cells show a flat, multipolar morphology and neurite formation. After 20 hours, cells were stressed acutely in serum-free medium (by aspiration of the medium and replacement with serum-free DMEM) with 50 μg/ml of peptides and evaluated morphologically at different time points thereafter. […] Morphological differences between cultures treated with different peptides could be observed as early as 5–6 hrs after treatment. The photographs shown were taken at the 24 hr time point. In another experiment (FIG. 12C), NG108–15 cells were cultured at low cell density (2×10^4/ml) in 1% FCS-containing DMEM medium overnight. The next day cells were subjected to acute stress in serum-free and low glucose (RPMI1640) medium (after aspiration of the 1% FCS DMEM) in the presence of 50 μg/ml of either 65–78*0401 [SEQ ID NO: 6] or 65–78*0402 [SEQ ID NO: 8] peptides. After 72 hours, cells were fixed with 1% formaldehyde and inspected microscopically. Mean±SEM was determined by averaging cell counts in eight randomly-selected microscopic fields in 200× magnification. Neurite-positive cells were defined as cells with one or more projections extending at least twice as long as the cell diameter. […] (FIG. 12C). The calculated number of neurite-positive cells was over 6-fold higher in shared epitope-containing peptide-cultured cells. When cultured in the presence of lysophosphatidic acid or high concentrations of serum, neuronal cells undergo neurite retraction (130). […] Thus, it is concluded that shared epitope-containing peptides may exert neuroprotective effects.

[4] = test system: Total cellular protein extracts; assay: Peptide affinity chromatography of total cellular protein extracts; type: binding; settings: total cellular protein extracts loaded
Text: Total cellular protein extracts were loaded onto columns of Sepharose beads, conjugated with either shared epitope-containing peptide 65–78*0404 [SEQ ID NO: 28] or the control peptide 65–78*0402 [SEQ ID NO: 8]. Bound proteins were eluted at low pH. […] 11 sequenced bands matched intracellular proteins, and only two sequences matched previously identified cell surface proteins: heat shock protein 60 (HSP60) and calreticulin. Both calreticulin and HSP60 are chaperones, with strong tendency to form hetero-complexes.

Calreticulin binding compared to control peptide 65–79*0402 [2]	Substance	Inhibition of cAMP-mediated (2CA-induced) DNA repair induction [1]	Inhibition of cAMP-mediated DNA repair induction (mouse cells)	PKA activation following 2CA (Protein kinase A (PKA))	cAMP level response to 2CA (M1 cells)	other results
markedly higher calreticulin binding	KDLLEQKRAAVDTYC [65–79*0401, synthetic peptide corresponding to amino acids 65–79 of the β chain encoded by the HLA-DRB*0401 allele]	inhibited cAMP-mediated DNA repair induction	inhibited cAMP-mediated DNA repair induction			
markedly higher calreticulin binding	KDLLEQRRAAVDTYC [65–79*0404, synthetic peptide corresponding to amino acids 65–79 of the β chain encoded by the HLA-DRB*0404 allele]	inhibited cAMP-mediated DNA repair induction	inhibited cAMP-mediated DNA repair induction			
	Bead*0402: Sepharose beads chemically conjugated to 14-mer peptide, residues 65–78 of DRβ*0402 chain [SEQ ID NO: 8] (KDILEDERAAVDTY; also: conjugated to Sepharose beads)			mounted substantial response to the agonist	mounted substantial response to the agonist	
	KDILEDERAAVDTY [65–78*0402, control peptide, amino acids 65–78 of the β chain encoded by the HLA-DRB*0402 allele]					Cell morphology after acute serum-free stress [3]: adjacent cells showed a rounding effect and collapsed into aggregates
	Bead*0401: Sepharose beads chemically conjugated to 14-mer peptide, residues 65–78 of DRβ*0401 chain [SEQ ID NO: 6] (KDLLEQKRAAVDTY; also: conjugated to Sepharose beads)			failed to increase cAMP levels or activate PKA	failed to increase cAMP levels	Block of cAMP-mediated (2CA-induced) DNA repair by Sepharose bead-conjugated peptide ([1]; M1 cells preincubated for various times with peptide-conjugated beads): blocked cAMP-mediated DNA repair
	KDILEDERAAVDTYC [65–79*0402, control peptide, amino acids 65–79 of the β chain encoded by the HLA-DRB*0402 allele]					Protein binding: distinct bands in low pH eluates of peptide-conjugated Sepharose column [4]: no protein binding was detected
